Data as given in patent US10800792B2, “Inhibitors of Bruton's tyrosine kinase and method of their use” (JANSSEN PHARMACEUTICA NV, priority 2015, dated 2020).

Target: unphosphorylated-BTK kinase domain (UP-BTK), GST-tagged human BTK (389-659aa) (Homo sapiens (Human), UniProt Q06187)
Experiment: BTK kinase Lanthascreen binding assay
Settings: unphosphorylated-BTK kinase domain, 50 nM Tracer 236, 60 minutes, pIC50 = negative log of the IC50 in molar
In short: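 Lanthascreen competition binding; test compound vs fluorescent tracer on unphosphorylated BTK. Output: pIC50 (−log IC50, M).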

Chain of unphosphorylated-BTK kinase domain (UP-BTK), GST-tagged human BTK (389-659aa) (Q06187 389-659): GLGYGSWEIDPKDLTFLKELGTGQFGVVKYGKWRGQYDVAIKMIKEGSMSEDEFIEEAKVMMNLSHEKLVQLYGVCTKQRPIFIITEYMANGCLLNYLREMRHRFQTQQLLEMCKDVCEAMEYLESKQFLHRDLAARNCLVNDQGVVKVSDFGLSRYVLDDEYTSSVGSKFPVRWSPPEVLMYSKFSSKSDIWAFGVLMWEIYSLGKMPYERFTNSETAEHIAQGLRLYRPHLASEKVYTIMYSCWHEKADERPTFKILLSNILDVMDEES

Row | Compound | BTK_I_binding pIC50 | IC50 (read-out: BTK_I_binding pIC50 (converted))
1 | C=CC(=O)N1CCC[C@@H](NC(=O)c2sc3nccc4c3c2NC(=O)N4c2ccc(Cl)c(C(F)(F)F)c2)C1 [Example 362, (R)—N-(1-Acryloylpiperidin-3-yl)-5-(4-chloro-3-(trifluoromethyl)phenyl)-4-oxo-4,5-dihydro-3H-1-thia-3,5,8-triazaacenaphthylene-2-carboxamide] | 5.4 | –
2 | COC(C)(C)CC(=O)N1CCC[C@@H](NC(=O)c2sc3nccc4c3c2NC(=O)N4c2ccc(Oc3ccccc3)cc2C)C1 [Example 363, (R)—N-(1-(3-Methoxy-3-methylbutanoyl)piperidin-3-yl)-5-(2-methyl-4-phenoxyphenyl)-4-oxo-4,5-dihydro-3H-1-thia-3,5,8-triazaacenaphthylene-2-carboxamide] | 6.9 | –
3 | CC(=O)N/C=C\C(=O)N1CCC[C@@H](NC(=O)c2sc3nccc4c3c2NC(=O)N4c2ccc(Oc3ccccc3)cc2C)C1 [Example 364, (R,Z)—N-(1-(3-Acetamidoacryloyl)piperidin-3-yl)-5-(2-methyl-4-phenoxyphenyl)-4-oxo-4,5-dihydro-3H-1-thia-3,5,8-triazaacenaphthylene-2-carboxamide] | 6.8 | –
4 | Cc1cc(Oc2ccccc2)ccc1N1C(=O)Nc2c(C(=O)N[C@@H]3CCN(C(=O)/C=C/CN(C)C)C3)sc3nccc1c23 [Example 368, (R,E)-N-(1-(4-(Dimethylamino)but-2-enoyl)pyrrolidin-3-yl)-5-(2-methyl-4-phenoxyphenyl)-4-oxo-4,5-dihydro-3H-1-thia-3,5,8-triazaacenaphthylene-2-carboxamide] | 7.6 | –
5 | C=CS(=O)(=O)N1CC[C@@H](NC(=O)c2sc3nccc4c3c2NC(=O)N4c2ccc(Oc3ccccc3)cc2C)C1 [Example 369, (R)-5-(2-Methyl-4-phenoxyphenyl)-4-oxo-N-(1-(vinylsulfonyl)pyrrolidin-3-yl)-4,5-dihydro-3H-1-thia-3,5,8-triazaacenaphthylene-2-carboxamide] | 7.8 | –
6 | [2H]C([2H])([2H])N1CCC[C@@H](NC(=O)c2sc3nccc4c3c2NC(=O)N4c2ccc(Oc3ccccc3)cc2C)C1 [Example 370, (R)-5-(2-Methyl-4-phenoxyphenyl)-N-(1-trideuteriomethylpiperidin-3-yl)-4-oxo-4,5-dihydro-3H-1-thia-3,5,8-triazaacenaphthylene-2-carboxamide] | – | 100 nM
7 | Cc1cc(Oc2ccccc2)ccc1N1C(=O)Nc2c(C(=O)N[C@@H]3CCCN(C(=O)/C=C/CN(C)C)C3)sc3nccc1c23 [Example 371, (R,E)-N-(1-(4-(Dimethylamino)but-2-enoyl)piperidin-3-yl)-5-(2-methyl-4-phenoxyphenyl)-4-oxo-4,5-dihydro-3H-1-thia-3,5,8-triazaacenaphthylene-2-carboxamide] | 7.0 | –
8 | C=CS(=O)(=O)N1CCC[C@@H](NC(=O)c2sc3nccc4c3c2NC(=O)N4c2ccc(Oc3ccccc3)cc2C)C1 [Example 372, (R)-5-(2-Methyl-4-phenoxyphenyl)-4-oxo-N-(1-(vinylsulfonyl)piperidin-3-yl)-4,5-dihydro-3H-1-thia-3,5,8-triazaacenaphthylene-2-carboxamide] | 7.6 | –
9 | CN(C)C/C=C/C(=O)N1CCC[C@@H](NC(=O)c2sc3nccc4c3c2NC(=O)N4c2ccc(Oc3ccccc3)cc2)C1 [Example 373, (R,E)-N-(1-(4-(Dimethylamino)but-2-enoyl)piperidin-3-yl)-4-oxo-5-(4-phenoxyphenyl)-4,5-dihydro-3H-1-thia-3,5,8-triazaacenaphthylene-2-carboxamide] | 7.3 | –
10 | Cc1cc(Oc2ccccc2)ccc1N1C(=O)Nc2c(C(=O)N[C@@H]3CCCN(C(=O)/C=C/CS(C)(=O)=O)C3)sc3nccc1c23 [Example 374, (R,E)-5-(2-Methyl-4-phenoxyphenyl)-N-(1-(4-(methylsulfonyl)but-2-enoyl)piperidin-3-yl)-4-oxo-4,5-dihydro-3H-1-thia-3,5,8-triazaacenaphthylene-2-carboxamide] | 7.0 | –
